What was measured:
[1] = tested on: NPC Chinese Hamster Ovary (CHO) cells; experiment: Relative lysosomal volume via LysoTracker, NPC CHO cells; format: cell-based; settings: 1 mM, 72 hours, p<0.01 versus untreated NPC1-null
Description: Relative lysosomal volume was quantified via LysoTracker.

[2] = tested on: downbeat nystagmus patients; experiment: Case studies, downbeat nystagmus patients; format: in vivo, human; settings: downbeat nystagmus Patient 2
[3] = tested on: downbeat nystagmus patients; experiment: Case studies, downbeat nystagmus patients; format: in vivo, human; settings: downbeat nystagmus Patient 1; 10 mg twice daily for four weeks
Description: The patient was diagnosed with downbeat nystagmus: the patient was severely impaired by blurred vision (oscillopsia) due to the nystagmus, and experienced difficulties while reading and writing. The patient's visual acuity was: right 0.75, left 0.67, binocular 0.83, and the downbeat nystagmus was documented by video-oculography. […] The patient could partially suppress the nystagmus by visual fixation, as evaluated using a target center (dot presented in the center of a display for 30 seconds, FIG. 13A) and in complete darkness using goggles covered with special glasses for 45 seconds (FIG. 13B). The results (median of slow phase velocity, SPV) were as follows: Target Center-horizontal: −0.02°/s, vertical: 2.41°/s; Complete Darkness-horizontal: 0.05°/s, vertical: 3.27°/s (FIG. 13C).

[4] = tested on: MSA-P patients; experiment: Case studies, multiple system atrophy Parkinson type (MSA-P) patients; format: in vivo, human; settings: MSA-P Patient 3
Description: Medication was stopped. […] The patient evaluated after one month on acetyl-DL-leucine. […] Episodes of mental confusion completely disappeared. The patient's cognitive structure seemed much clearer and straighter. […] The patient's spouse supported continuing the medication.

[5] = tested on: corticobasal syndrome patient; experiment: Case study, corticobasal syndrome; format: in vivo, human
Description: Gait analysis was performed before treatment commenced.

[6] = tested on: frontotemporal dementia with parkinsonism patient; experiment: Case study, frontotemporal dementia with parkinsonism; format: in vivo, human; settings: frontotemporal dementia with parkinsonism patient; treatment with L-Dopa and Ropinirol
Description: After approximately one month of acetyl-leucine treatment, medication was stopped and the patient was re-examined 13 days later.

[7] = tested on: Lewy Body dementia patient; experiment: Case study, Lewy Body dementia; format: in vivo, human; settings: Levodopa 100 mg 4× daily and Quetiapin 25 mg at night
Description: The patient started taking acetyl-leucine (3 g/day for one week; 5 g/day thereafter) and was evaluated after four weeks. […] Medication was reduced to 3 g/day, and the patient was instructed to stop medication about two weeks later.

[8] = tested on: restless leg syndrome patients; experiment: Case studies, restless legs syndrome (IRLS score); format: in vivo, human
Description: A widely reported rating scale known as the International Restless Leg Syndrome Study Group Rating Scale (“IRLS”) was developed by the International Restless Legs Syndrome Study Group (“IRLSSG”) (http://www.irlssg.org/) (Walters et al., Validation of the International Restless Legs Syndrome Study Group rating scale for restless legs syndrome. Sleep medicine. 2003 Apr. 1; 4(2):121-32). The IRLS is a 10-item scale with scores ranging from 0 (no symptoms) to 40. Scores >30 are considered very severe, severe (Score 21-30), moderate (scores 11-20) and ≤10, mild. Use of the scale is common for clinical assessment, research and therapeutic trials with RLS. In one embodiment, treatment with leucine, acetyl-leucine, or a pharmaceutically acceptable salt thereof as described herein decreases the subject's International Restless Leg Syndrome Study Group Rating Scale (“IRLS”) compared to a baseline. In one embodiment, the IRLS is reduced compared to baseline by at least 10%, at least 20%, at least 30%, at least 40%, or at least 50%. In one embodiment, the IRLS is reduced by at least 60%, at least 70%, at least 80%, at least 90%, or 100%.
The patient in this case study was a person showing proximal weakness of the so lower limb. […] Upon consultation, they reported no sensory symptoms but complained of a restless leg syndrome at night and during resting periods of the day, occurring over the course of the last two years. Pre-treatment with dopamine agonist were without symptom relief. Serum creatine kinase activity was only mildly elevated at up to 400 IU/L. The patient was evaluated using the RLS diagnostic index (RLS-DI) (see Walters et al., Sleep Med 2003; 4(2):121-132;). The patient's International Restless Legs Syndrome Rating Scale score (IRLS) was 36, and thus a severe RLS was diagnosed. […] Re-introduction of the treatment re-declined the score to 8 after 2 weeks. Continuation of treatment over more than 22 weeks stabilized the IRLS score at 8.
The patient in this case study was a person showing proximal weakness of the lower limb. […] Upon consultation, they reported no sensory symptoms but complained of a restless leg syndrome at night and during resting periods of the day, occurring over the course of the last eight years. […] Serum creatine kinase activity was mildly elevated at 300 IU/L. Iron measurements and all additional lab investigations were normal. The patient was evaluated using the RLS-DI and the patient's IRLS was 32, and thus a moderate to severe RLS was diagnosed. […] Continuation of treatment over more than 28 weeks stabilized the IRLS score at 8.
The patient in this case study was a person showing mild proximal weakness of the upper and lower limbs slowly progressive. The patient had been diagnosed (genetically confirmed) with McArdle myopathy about 16 years ago. Upon consultation, they reported no sensory symptoms but complained about a severe fatigue and reduced stamina. The patient further reported a restless leg syndrome at night and during resting periods of the day, occurring over the course of the last 12 years. […] Serum creatine kinase activity was mildly elevated at 200 IU/L; however, the patient had 5 episodes of rhabdomyolysis during the past 20 years. Repeated iron measurements and all additional lab investigations were normal. The patient was evaluated using the RLS-DI and the patient's IRLS was 34, and thus a severe RLS was diagnosed. […] Continuation of treatment over more than 30 weeks stabilized the IRLS score at 10. In addition, the patient's fatigue declined (Fatigue Severit Scale: 9 (minimum) to 63 (maximum)) from 53 to 28.

[9] = tested on: progressive supranuclear palsy patients; experiment: Case studies, progressive supranuclear palsy patients; format: in vivo, human
Description: After 27 days of acetyl-leucine treatment, medication was stopped and the patient was re-examined 60 days later. […] Gait analysis was performed before treatment commenced. […] Gait analysis was performed before treatment commenced. After 17 days of treatment, medication was stopped and the patient was re-examined 4 days later. […] Gait analysis was performed before treatment commenced. After three weeks of treatment, medication was stopped and the patient was re-examined.

[10] = tested on: MSA-P patients; experiment: Case studies, multiple system atrophy Parkinson type (MSA-P) patients; format: in vivo, human; settings: MSA-P Patient 1; 100/25 mg 3×daily
[11] = tested on: ALS patients; experiment: Case studies, amyotrophic lateral sclerosis (ALS) patients; format: in vivo, human; settings: ALS Patient 1; medication started around the time of ALS diagnosis
Description: The results were documented by video.

[12] = tested on: rat model of an acute unilateral labyrinthectomy; settings: Zwergal et al. (2016); Gunther et al. (2015); cited from earlier work

## CC(C)CC(N)C(=O)O (racemic) [DL-leucine]
[1]
  Lysosomal volume (LysoTracker): significantly reduced lysosomal volume

## Nc1ccncc1 [4-aminopyridine, reference compound]
[2]
  Clinical response: did not benefit
[3]
  Clinical response: did not give rise to any benefit

## CC(C)C[C@@H](N)C(=O)O [D-leucine]
[1]
  Lysosomal volume (LysoTracker): significantly reduced lysosomal volume

## N[C@@H](Cc1ccc(O)c(O)c1)C(=O)O [L-Dopa, reference compound]
[4]
  Tolerability: suspended due to side effects
[5]
  Clinical response: no improvement
[6]
  Clinical response: little improvement
[7]
  Clinical response: improved the symptomatology
[8]; RLS Patient 2
  Symptom relief (pre-treatment): without sustained symptom relief
[8]; RLS Patient 3
  Symptom relief (pre-treatment): without sustained symptom relief
[9]; PSP Patient 1
  Clinical response: little improvement
[9]; PSP Patient 2
  Clinical response: no levodopa response
[9]; PSP Patient 3
  Clinical response: no levodopa response
[9]; PSP Patient 4
  Clinical response: slight levodopa response
[10]
  Clinical response: discreet Levodopa response

## CC(C)C[C@H](N)C(=O)O [L-leucine]
[1]
  Lysosomal volume (LysoTracker): significantly reduced lysosomal volume

## OCCOCCN1CCN(C2=Nc3ccccc3Sc3ccccc32)CC1 [Quetiapin, reference compound]
[7]
  Clinical response: improved the symptomatology

## Nc1nc2ccc(OC(F)(F)F)cc2s1 [Riluzol, reference compound]
[11]
  Clinical symptomatology: clinical symptomatology remained unchanged

## CCCN(CCC)CCc1cccc2c1CC(=O)N2 [Ropinirol, reference compound]
[6]
  Clinical response: little improvement

## CC(=O)N[C@H](CC(C)C)C(=O)O [acetyl-D-leucine]
[1]
  Lysosomal volume (LysoTracker): significantly reduced lysosomal volume

## CC(=O)N[C@@H](CC(C)C)C(=O)O [acetyl-L-leucine]
[12]
  Effect on postural compensation: significant effect
[1]
  Lysosomal volume (LysoTracker): significantly reduced lysosomal volume

## CC(C)C[C@H](CN)CC(=O)O [pregabaline, reference compound]
[8]; RLS Patient 2
  Symptom relief (pre-treatment): without sustained symptom relief
[8]; RLS Patient 3
  Symptom relief (pre-treatment): without sustained symptom relief
